Source: the kinase profiling compilation of Christmann-Franck et al. (2016)

Assays:
[1] = biological target: MAP3K7 (human) (UniProt O43318); test: KINOMEscan competition binding; settings: compound 10.0 µM
[2] = biological target: CDK7 (human) (UniProt P50613); test: KINOMEscan competition binding; settings: compound 10.0 µM
[3] = biological target: GSK3A (human) (UniProt P49840); test: KINOMEscan competition binding; settings: compound 10.0 µM
[4] = biological target: MAP4K2 (human) (UniProt Q12851); test: KINOMEscan competition binding; settings: compound 10.0 µM
[5] = biological target: CLK1 (human) (UniProt P49759); test: KINOMEscan competition binding; settings: compound 10.0 µM
Chain of CLK1 (human) (P49759 whole entry, looked up): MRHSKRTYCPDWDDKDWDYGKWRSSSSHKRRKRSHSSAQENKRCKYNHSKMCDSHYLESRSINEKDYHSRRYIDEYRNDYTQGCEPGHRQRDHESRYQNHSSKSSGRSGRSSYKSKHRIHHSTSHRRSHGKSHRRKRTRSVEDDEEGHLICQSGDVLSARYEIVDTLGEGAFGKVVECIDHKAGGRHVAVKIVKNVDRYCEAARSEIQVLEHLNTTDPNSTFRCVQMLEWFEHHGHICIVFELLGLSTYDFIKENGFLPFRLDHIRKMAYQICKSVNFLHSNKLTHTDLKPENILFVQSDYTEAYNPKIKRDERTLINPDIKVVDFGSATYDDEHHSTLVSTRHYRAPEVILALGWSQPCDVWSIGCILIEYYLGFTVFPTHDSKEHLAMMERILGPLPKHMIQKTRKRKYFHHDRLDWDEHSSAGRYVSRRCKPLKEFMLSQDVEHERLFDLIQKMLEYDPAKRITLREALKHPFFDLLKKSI

[6] = biological target: TGFBR2 (human) (UniProt P37173); test: KINOMEscan competition binding; settings: compound 10.0 µM
Chain of TGFBR2 (human) (P37173 whole entry, looked up): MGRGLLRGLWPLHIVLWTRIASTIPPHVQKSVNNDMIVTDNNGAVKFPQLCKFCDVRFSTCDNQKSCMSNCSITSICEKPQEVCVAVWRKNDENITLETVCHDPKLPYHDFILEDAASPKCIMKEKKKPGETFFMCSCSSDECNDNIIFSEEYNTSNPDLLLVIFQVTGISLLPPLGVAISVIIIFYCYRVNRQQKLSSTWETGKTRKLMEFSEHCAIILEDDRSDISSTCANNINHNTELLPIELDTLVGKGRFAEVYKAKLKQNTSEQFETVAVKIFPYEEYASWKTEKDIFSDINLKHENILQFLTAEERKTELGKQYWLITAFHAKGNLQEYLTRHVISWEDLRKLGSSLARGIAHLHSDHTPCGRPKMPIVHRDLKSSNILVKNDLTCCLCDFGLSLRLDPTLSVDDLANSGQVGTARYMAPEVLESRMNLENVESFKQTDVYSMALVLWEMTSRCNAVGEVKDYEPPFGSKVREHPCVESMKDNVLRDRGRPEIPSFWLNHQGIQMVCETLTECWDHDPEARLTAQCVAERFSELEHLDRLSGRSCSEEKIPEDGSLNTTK

[7] = biological target: CSNK2A2 (human) (UniProt P19784); test: KINOMEscan competition binding; settings: compound 10.0 µM
Chain of CSNK2A2 (human) (P19784 whole entry, looked up): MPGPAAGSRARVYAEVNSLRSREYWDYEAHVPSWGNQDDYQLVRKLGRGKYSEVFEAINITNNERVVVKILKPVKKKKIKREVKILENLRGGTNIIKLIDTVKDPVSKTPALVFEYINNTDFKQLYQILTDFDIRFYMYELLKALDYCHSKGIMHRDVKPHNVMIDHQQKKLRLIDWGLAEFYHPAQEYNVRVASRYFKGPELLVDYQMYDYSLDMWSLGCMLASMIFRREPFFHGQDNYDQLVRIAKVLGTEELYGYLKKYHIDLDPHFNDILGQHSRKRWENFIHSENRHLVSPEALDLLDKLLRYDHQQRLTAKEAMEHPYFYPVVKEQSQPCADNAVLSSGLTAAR

[8] = biological target: IRAK3 (human) (UniProt Q9Y616); test: KINOMEscan competition binding; settings: compound 10.0 µM
[9] = test system: FLT3 (human), P36888 [N841I]; test: KINOMEscan competition binding; settings: compound 10.0 µM
[10] = test system: RET (human), P07949 [V804M]; test: KINOMEscan competition binding; settings: compound 10.0 µM
[11] = test system: FLT3 (human), P36888 [D835H]; test: KINOMEscan competition binding; settings: compound 10.0 µM
[12] = biological target: JAK1 JH2 pseudokinase (human) (UniProt P23458); test: KINOMEscan competition binding; settings: compound 10.0 µM
[13] = biological target: ACVR2A (human) (UniProt P27037); test: KINOMEscan competition binding; settings: compound 10.0 µM
[14] = biological target: MYLK4 (human) (UniProt Q86YV6); test: KINOMEscan competition binding; settings: compound 10.0 µM
[15] = biological target: DAPK2 (human) (UniProt Q9UIK4); test: KINOMEscan competition binding; settings: compound 10.0 µM
[16] = test system: FLT3 (human), P36888 [D835Y]; test: KINOMEscan competition binding; settings: compound 10.0 µM
[17] = biological target: STK17B (human) (UniProt O94768); test: KINOMEscan competition binding; settings: compound 10.0 µM
[18] = biological target: BMP2K (human) (UniProt Q9NSY1); test: KINOMEscan competition binding; settings: compound 10.0 µM
[19] = biological target: STK17A (human) (UniProt Q9UEE5); test: KINOMEscan competition binding; settings: compound 10.0 µM
[20] = biological target: SRPK3 (human) (UniProt Q9UPE1); test: KINOMEscan competition binding; settings: compound 10.0 µM
[21] = biological target: AAK1 (human) (UniProt Q2M2I8); test: KINOMEscan competition binding; settings: compound 10.0 µM
[22] = biological target: RIOK2 (human) (UniProt Q9BVS4); test: KINOMEscan competition binding; settings: compound 10.0 µM
[23] = biological target: ACVR2B (human) (UniProt Q13705); test: KINOMEscan competition binding; settings: compound 10.0 µM
[24] = biological target: CLK2 (human) (UniProt P49760); test: KINOMEscan competition binding; settings: compound 10.0 µM
[25] = biological target: DAPK1 (human) (UniProt P53355); test: KINOMEscan competition binding; settings: compound 10.0 µM
[26] = biological target: HIPK1 (human) (UniProt Q86Z02); test: KINOMEscan competition binding; settings: compound 10.0 µM
[27] = biological target: PIP5K1A (human) (UniProt Q99755); test: KINOMEscan competition binding; settings: compound 10.0 µM
[28] = biological target: RIOK1 (human) (UniProt Q9BRS2); test: KINOMEscan competition binding; settings: compound 10.0 µM
[29] = biological target: MINK1 (human) (UniProt Q8N4C8); test: KINOMEscan competition binding; settings: compound 10.0 µM
[30] = biological target: MAP2K4 (human) (UniProt P45985); test: KINOMEscan competition binding; settings: compound 10.0 µM
[31] = test system: FLT3 (human), P36888 [ITD]; test: KINOMEscan competition binding; settings: compound 10.0 µM
[32] = biological target: MYLK (human) (UniProt Q15746); test: KINOMEscan competition binding; settings: compound 10.0 µM
[33] = biological target: TYK2 JH2 pseudokinase (human) (UniProt P29597); test: KINOMEscan competition binding; settings: compound 10.0 µM
[34] = biological target: PIP4K2B (human) (UniProt P78356); test: KINOMEscan competition binding; settings: compound 10.0 µM
[35] = biological target: GAK (human) (UniProt O14976); test: KINOMEscan competition binding; settings: compound 10.0 µM
[36] = biological target: TAOK1 (human) (UniProt Q7L7X3); test: KINOMEscan competition binding; settings: compound 10.0 µM
[37] = biological target: CAMKK1 (human) (UniProt Q8N5S9); test: KINOMEscan competition binding; settings: compound 10.0 µM
Chain of CAMKK1 (human) (Q8N5S9 whole entry, looked up): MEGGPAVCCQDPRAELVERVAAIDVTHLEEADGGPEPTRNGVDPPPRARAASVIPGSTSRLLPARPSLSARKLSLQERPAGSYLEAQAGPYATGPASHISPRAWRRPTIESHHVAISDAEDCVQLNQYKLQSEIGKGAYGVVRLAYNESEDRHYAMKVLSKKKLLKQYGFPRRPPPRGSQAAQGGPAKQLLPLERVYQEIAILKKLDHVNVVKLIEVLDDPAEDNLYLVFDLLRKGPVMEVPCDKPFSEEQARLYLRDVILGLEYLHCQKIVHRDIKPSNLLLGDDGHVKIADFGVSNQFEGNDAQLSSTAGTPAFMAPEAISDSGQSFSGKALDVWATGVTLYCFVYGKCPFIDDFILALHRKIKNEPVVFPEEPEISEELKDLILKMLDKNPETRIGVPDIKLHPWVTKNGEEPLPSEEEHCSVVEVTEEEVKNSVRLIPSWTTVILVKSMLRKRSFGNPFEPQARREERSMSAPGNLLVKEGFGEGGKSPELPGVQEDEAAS

[38] = biological target: PLK3 (human) (UniProt Q9H4B4); test: KINOMEscan competition binding; settings: compound 10.0 µM
[39] = biological target: PIM3 (human) (UniProt Q86V86); test: KINOMEscan competition binding; settings: compound 10.0 µM
[40] = biological target: TTK (human) (UniProt P33981); test: KINOMEscan competition binding; settings: compound 10.0 µM
Chain of TTK (human) (P33981 whole entry, looked up): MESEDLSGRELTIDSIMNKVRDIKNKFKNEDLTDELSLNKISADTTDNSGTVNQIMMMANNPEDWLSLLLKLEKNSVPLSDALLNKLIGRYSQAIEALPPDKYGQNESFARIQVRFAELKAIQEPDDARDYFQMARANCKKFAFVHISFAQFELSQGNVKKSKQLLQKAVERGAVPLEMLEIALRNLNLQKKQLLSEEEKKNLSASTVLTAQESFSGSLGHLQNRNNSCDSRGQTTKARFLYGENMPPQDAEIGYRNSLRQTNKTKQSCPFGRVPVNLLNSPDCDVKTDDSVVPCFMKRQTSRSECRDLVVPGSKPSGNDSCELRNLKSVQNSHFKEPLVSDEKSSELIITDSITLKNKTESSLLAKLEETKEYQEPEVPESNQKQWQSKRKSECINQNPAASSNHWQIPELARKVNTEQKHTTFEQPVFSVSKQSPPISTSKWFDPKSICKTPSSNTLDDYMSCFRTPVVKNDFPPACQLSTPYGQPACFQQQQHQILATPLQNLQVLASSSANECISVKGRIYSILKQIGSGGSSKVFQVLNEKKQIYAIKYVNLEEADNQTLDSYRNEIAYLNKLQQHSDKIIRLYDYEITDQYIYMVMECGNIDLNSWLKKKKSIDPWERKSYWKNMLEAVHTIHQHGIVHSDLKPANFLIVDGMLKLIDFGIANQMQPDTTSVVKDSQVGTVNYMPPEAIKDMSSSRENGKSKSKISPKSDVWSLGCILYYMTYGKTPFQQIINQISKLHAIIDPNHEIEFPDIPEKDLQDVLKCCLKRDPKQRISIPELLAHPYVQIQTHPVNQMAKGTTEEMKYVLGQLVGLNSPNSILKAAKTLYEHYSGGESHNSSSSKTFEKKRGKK

[41] = test system: EIF2AK4 KD2 (human), Q9P2K8 [S808G]; test: KINOMEscan competition binding; settings: compound 10.0 µM
Chain of EIF2AK4 KD2 (human), Q9P2K8 [S808G] (Q9P2K8 whole entry S808G, looked up): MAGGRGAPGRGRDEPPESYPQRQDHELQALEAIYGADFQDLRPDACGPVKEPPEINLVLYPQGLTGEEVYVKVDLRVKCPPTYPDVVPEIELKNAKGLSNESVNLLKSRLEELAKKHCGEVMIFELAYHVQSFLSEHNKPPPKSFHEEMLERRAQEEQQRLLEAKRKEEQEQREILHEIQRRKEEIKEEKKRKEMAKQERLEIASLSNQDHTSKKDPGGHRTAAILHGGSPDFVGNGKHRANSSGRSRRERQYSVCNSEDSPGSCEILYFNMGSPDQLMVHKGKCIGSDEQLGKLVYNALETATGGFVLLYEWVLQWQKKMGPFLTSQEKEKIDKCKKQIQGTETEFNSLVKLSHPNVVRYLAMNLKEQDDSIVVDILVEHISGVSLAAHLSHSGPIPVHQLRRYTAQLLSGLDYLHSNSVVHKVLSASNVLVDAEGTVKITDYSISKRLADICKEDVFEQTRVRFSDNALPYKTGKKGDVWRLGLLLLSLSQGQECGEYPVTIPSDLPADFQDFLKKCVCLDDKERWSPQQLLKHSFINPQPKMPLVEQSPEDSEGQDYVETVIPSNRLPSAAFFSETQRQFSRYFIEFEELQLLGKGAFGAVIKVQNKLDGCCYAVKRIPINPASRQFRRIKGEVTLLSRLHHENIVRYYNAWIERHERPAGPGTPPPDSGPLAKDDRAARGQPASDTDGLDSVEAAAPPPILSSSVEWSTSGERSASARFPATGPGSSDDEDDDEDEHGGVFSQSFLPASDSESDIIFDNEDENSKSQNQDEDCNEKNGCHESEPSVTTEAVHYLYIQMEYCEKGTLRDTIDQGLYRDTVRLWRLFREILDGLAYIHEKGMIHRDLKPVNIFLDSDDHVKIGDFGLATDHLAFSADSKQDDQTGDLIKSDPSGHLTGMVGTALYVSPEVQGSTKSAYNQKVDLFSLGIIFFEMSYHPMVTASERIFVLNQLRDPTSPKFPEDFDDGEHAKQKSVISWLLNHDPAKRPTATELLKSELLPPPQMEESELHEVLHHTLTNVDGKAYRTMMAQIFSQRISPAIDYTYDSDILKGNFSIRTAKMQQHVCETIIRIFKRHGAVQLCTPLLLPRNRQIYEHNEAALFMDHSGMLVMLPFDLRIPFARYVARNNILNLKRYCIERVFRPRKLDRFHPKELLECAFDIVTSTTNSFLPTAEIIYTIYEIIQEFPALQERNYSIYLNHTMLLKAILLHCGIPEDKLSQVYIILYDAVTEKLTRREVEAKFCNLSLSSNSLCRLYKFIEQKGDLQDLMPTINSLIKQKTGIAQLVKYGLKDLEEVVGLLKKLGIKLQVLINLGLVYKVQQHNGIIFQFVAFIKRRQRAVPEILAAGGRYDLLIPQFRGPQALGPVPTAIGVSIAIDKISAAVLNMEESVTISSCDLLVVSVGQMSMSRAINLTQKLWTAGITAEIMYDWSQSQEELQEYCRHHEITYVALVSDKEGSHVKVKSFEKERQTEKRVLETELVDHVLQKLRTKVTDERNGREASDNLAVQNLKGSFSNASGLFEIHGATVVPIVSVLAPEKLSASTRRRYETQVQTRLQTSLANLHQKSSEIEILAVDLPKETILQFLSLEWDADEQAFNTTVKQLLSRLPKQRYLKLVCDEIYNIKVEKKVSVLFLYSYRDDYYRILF

[42] = biological target: PIM2 (human) (UniProt Q9P1W9); test: KINOMEscan competition binding; settings: compound 10.0 µM
Chain of PIM2 (human) (Q9P1W9 whole entry, looked up): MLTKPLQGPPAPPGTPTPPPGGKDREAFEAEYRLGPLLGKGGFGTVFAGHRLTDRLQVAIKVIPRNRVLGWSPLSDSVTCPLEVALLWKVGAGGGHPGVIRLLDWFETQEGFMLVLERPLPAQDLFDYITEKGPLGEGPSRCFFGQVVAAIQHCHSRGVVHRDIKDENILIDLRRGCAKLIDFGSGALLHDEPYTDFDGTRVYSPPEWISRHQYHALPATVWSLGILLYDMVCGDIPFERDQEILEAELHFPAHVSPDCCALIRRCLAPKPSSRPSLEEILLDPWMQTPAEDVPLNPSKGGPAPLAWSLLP

[43] = biological target: CLK4 (human) (UniProt Q9HAZ1); test: KINOMEscan competition binding; settings: compound 10.0 µM
[44] = biological target: RIPK2 (human) (UniProt O43353); test: KINOMEscan competition binding; settings: compound 10.0 µM
[45] = biological target: PIM1 (human) (UniProt P11309); test: KINOMEscan competition binding; settings: compound 10.0 µM
Chain of PIM1 (human) (P11309 whole entry, looked up): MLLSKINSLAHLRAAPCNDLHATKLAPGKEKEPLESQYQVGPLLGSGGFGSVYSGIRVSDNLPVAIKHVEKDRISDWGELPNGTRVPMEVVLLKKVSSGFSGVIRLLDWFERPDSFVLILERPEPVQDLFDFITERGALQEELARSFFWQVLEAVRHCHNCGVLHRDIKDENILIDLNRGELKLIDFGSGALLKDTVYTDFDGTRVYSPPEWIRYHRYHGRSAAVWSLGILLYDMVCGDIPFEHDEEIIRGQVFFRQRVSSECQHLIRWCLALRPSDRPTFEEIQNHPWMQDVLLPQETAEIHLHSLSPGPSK

[46] = biological target: PIM2 (human) (UniProt Q9P1W9); test: SelectScreen, TR FRET
[47] = biological target: PIM1 (human) (UniProt P11309); test: SelectScreen, TR FRET

## N=C1NC(=O)/C(=C/c2ccc(-c3cnc4ccccc4c3)o2)S1
[1]
  kinase still bound, per cent of control: 12%
[2]
  kinase still bound, per cent of control: 5.8%
[3]
  kinase still bound, per cent of control: 17%
[4]
  kinase still bound, per cent of control: 20%
[5]
  kinase still bound, per cent of control: 15%
[6]
  kinase still bound, per cent of control: 9.2%
[7]
  kinase still bound, per cent of control: 5.5%
[8]
  kinase still bound, per cent of control: 24%
[9]
  kinase still bound, per cent of control: 29%
[10]
  kinase still bound, per cent of control: 10%
[11]
  kinase still bound, per cent of control: 18%
[12]
  kinase still bound, per cent of control: 20%
[13]
  kinase still bound, per cent of control: 34%
[14]
  kinase still bound, per cent of control: 13%
[15]
  kinase still bound, per cent of control: 30%
[16]
  kinase still bound, per cent of control: 8.4%
[17]
  kinase still bound, per cent of control: 2.3%
[18]
  kinase still bound, per cent of control: 8%
[19]
  kinase still bound, per cent of control: 0.55%
[20]
  kinase still bound, per cent of control: 22%
[21]
  kinase still bound, per cent of control: 6.3%
[22]
  kinase still bound, per cent of control: 9.2%
[23]
  kinase still bound, per cent of control: 21%
[24]
  kinase still bound, per cent of control: 9.8%
[25]
  kinase still bound, per cent of control: 22%
[26]
  kinase still bound, per cent of control: 0.1%
[27]
  kinase still bound, per cent of control: 19%
[28]
  kinase still bound, per cent of control: 15%
[29]
  kinase still bound, per cent of control: 16%
[30]
  kinase still bound, per cent of control: 33%
[31]
  kinase still bound, per cent of control: 22%
[32]
  kinase still bound, per cent of control: 24%
[33]
  kinase still bound, per cent of control: 1.1%
[34]
  kinase still bound, per cent of control: 20%
[35]
  kinase still bound, per cent of control: 2.6%
[36]
  kinase still bound, per cent of control: 34%
[37]
  kinase still bound, per cent of control: 27%
[38]
  kinase still bound, per cent of control: 29%
[39]
  kinase still bound, per cent of control: 3.2%
[40]
  kinase still bound, per cent of control: 25%
[41]
  kinase still bound, per cent of control: 26%
[42]
  kinase still bound, per cent of control: 1.4%
[43]
  kinase still bound, per cent of control: 20%
[44]
  kinase still bound, per cent of control: 25%
[45]
  kinase still bound, per cent of control: 8.3%
[46]
  IC50: 504 nM
[47]
  IC50: > 1110 nM
